In ChEMBL document CHEMBL5236590, “Discovery of Novel N-(5-(Pyridin-3-yl)-1H-indazol-3-yl)benzamide Derivatives as Potent Cyclin-Dependent Kinase 7 Inhibitors for the Treatment of Autosomal Dominant Polycystic Kidney Disease” (J Med Chem, 2022):

How the values were obtained:
[1] = target: T1, Cyclin-dependent kinase 2 (Homo sapiens, UniProt P24941); assay: Inhibition of CDK2 (unknown origin) assessed as phosphorylation of ULight 4EBP1 peptide substrate measured after 2 hrs by FRET-based LANCE Ultra KinSelect assay
[2] = target: T2, Cyclin-dependent kinase 7 (Homo sapiens, UniProt P50613); assay: Inhibition of CDK7 (unknown origin) assessed as phosphorylation of ULight 4EBP1 peptide substrate measured after 2 hrs by FRET-based LANCE Ultra KinSelect assay
[3] = target: T1, Cyclin-dependent kinase 2; assay: Inhibition of CDK2 (unknown origin) assessed as phosphorylation of ULight 4EBP1 peptide substrate at 10 uM measured after 2 hrs by FRET-based LANCE Ultra KinSelect assay
THP-1 = assay: Cytotoxicity against human THP-1 cells assessed as cell viability measured after 24 hrs by CCK-8 assay; assay type: functional, cell-based; details: THP-1, 24 h
[4] = target: T2, Cyclin-dependent kinase 7; assay: Inhibition of CDK7 (unknown origin) assessed as phosphorylation of ULight 4EBP1 peptide substrate at 10 uM measured after 2 hrs by FRET-based LANCE Ultra KinSelect assay relative to control

T2 sequence (P50613 whole entry): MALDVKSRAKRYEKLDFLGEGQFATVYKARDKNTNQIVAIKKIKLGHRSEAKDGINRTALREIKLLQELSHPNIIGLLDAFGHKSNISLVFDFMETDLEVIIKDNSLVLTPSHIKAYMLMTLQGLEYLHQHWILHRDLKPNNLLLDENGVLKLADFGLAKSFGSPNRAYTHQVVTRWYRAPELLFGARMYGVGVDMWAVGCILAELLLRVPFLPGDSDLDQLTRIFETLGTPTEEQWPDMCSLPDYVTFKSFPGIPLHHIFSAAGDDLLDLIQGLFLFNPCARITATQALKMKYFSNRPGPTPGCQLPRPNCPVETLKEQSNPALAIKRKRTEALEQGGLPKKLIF

Row | SMILES | IC50 [1] [µM] | IC50 [2] [µM] | further results
1 | O=C(Nc1n[nH]c2ccc(-c3cncc(NC[C@@H](CO)c4ccccc4)c3)cc12)c1ccccc1 | 0.813 | 0.71 | 
2 | COc1cncc(-c2ccc3[nH]nc(NC(=O)c4ccccc4)c3c2)c1 |  | 5.53 | 
3 | O=C(Nc1n[nH]c2ccc(-c3cncc(NC[C@H](CO)Cc4ccccc4)c3)cc12)c1ccccc1 | 2.4 | 2.64 | 
4 | N[C@H](C(=O)Nc1cncc(-c2ccc3[nH]nc(NC(=O)c4ccccc4)c3c2)c1)c1ccccc1 |  | 3.14 | inhibition [3]: 34%
5 | CN(C)C/C=C/C(=O)Nc1ccc(C(=O)Nc2cccc(Nc3ncc(Cl)c(-c4c[nH]c5ccccc45)n3)c2)cc1 |  |  | IC50 (THP-1): 77 µM
6 | O=C(Nc1n[nH]c2ccc(-c3cncc(NCCO)c3)cc12)c1ccccc1 |  | 1.71 | 
7 | O=C(Nc1n[nH]c2ccc(-c3cncc(NC[C@H](O)c4ccccc4)c3)cc12)c1ccccc1 | 0.269 | 0.311 | 
8 | C=CC(=O)Nc1ccc(C(=O)Nc2n[nH]c3ccc(-c4cncc(N[C@H](CO)c5ccccc5)c4)cc23)cc1 | 0.756 | 0.019 | 
9 | N[C@H](COc1cncc(-c2ccc3[nH]nc(NC(=O)c4ccccc4)c3c2)c1)c1ccccc1 | 0.12 | 0.692 | 
10 | N[C@H](COc1cncc(-c2ccc3[nH]nc(NC(=O)c4ccccc4)c3c2)c1)Cc1ccccc1 | 0.097 | 0.335 | 
11 | O=C(Nc1n[nH]c2ccc(-c3cncc(NC[C@@H](O)c4ccccc4)c3)cc12)c1ccccc1 | 0.802 | 0.44 | 
12 | O=C(Nc1n[nH]c2ccc(-c3cccnc3)cc12)c1ccccc1 |  | 7.55 | 
13 | C=CC(=O)Nc1ccc(C(=O)Nc2n[nH]c3ccc(-c4cncc(N[C@H](CO)Cc5ccccc5)c4)cc23)cc1 | 0.595 | 0.005 | 
14 | N[C@@H](COc1cncc(-c2ccc3[nH]nc(NC(=O)c4ccccc4)c3c2)c1)Cc1ccccc1 | 0.499 | 2.39 | 
15 | NC[C@@H](CNc1cncc(-c2ccc3[nH]nc(NC(=O)c4ccccc4)c3c2)c1)c1ccccc1 | 0.19 | 0.395 | 
16 | CNC(=O)c1cncc(-c2ccc3[nH]nc(NC(=O)c4ccccc4)c3c2)c1 |  | 3.78 | 

Row | SMILES | IC50 [1] [µM] | IC50 [2] [µM] | further results
17 | N[C@H](Cc1ccccc1)C(=O)Nc1cncc(-c2ccc3[nH]nc(NC(=O)c4ccccc4)c3c2)c1 | 0.55 | 2.07 | 
18 | NCCOc1cncc(-c2ccc3[nH]nc(NC(=O)c4ccccc4)c3c2)c1 |  | 2 | 
19 | NCC(=O)Nc1cncc(-c2ccc3[nH]nc(NC(=O)c4ccccc4)c3c2)c1 |  | 2.49 | 
20 | O=C(Nc1n[nH]c2ccc(-c3cncc(NC[C@H](CO)c4ccccc4)c3)cc12)c1ccccc1 | 0.577 | 1.73 | 
21 | N[C@@H](Cc1ccccc1)C(=O)Nc1cncc(-c2ccc3[nH]nc(NC(=O)c4ccccc4)c3c2)c1 | 1.05 | 1.34 | 
22 | Cc1cncc(-c2ccc3[nH]nc(NC(=O)c4ccccc4)c3c2)c1 |  | 2.61 | 
23 | O=C(Nc1n[nH]c2ccc(-c3cncc(O)c3)cc12)c1ccccc1 |  | 7.24 | 
24 | O=C(Nc1n[nH]c2ccc(-c3cncc(NC[C@@H](CO)Cc4ccccc4)c3)cc12)c1ccccc1 | 0.609 | 0.67 | 
25 | C=CC(=O)Nc1ccc(C(=O)Nc2n[nH]c3ccc(-c4cncc(NC(=O)[C@@H](N)Cc5ccccc5)c4)cc23)cc1 | 0.477 | 0.007 | 
26 | N[C@@H](COc1cncc(-c2ccc3[nH]nc(NC(=O)c4ccccc4)c3c2)c1)c1ccccc1 |  | 4.92 | inhibition [3]: 48%
27 | C=CC(=O)Nc1ccc(C(=O)Nc2n[nH]c3ccc(-c4cncc(NC(=O)[C@@H](N)c5ccccc5)c4)cc23)cc1 |  | 0.064 | 
28 | C=CC(=O)Nc1ccc(C(=O)Nc2n[nH]c3ccc(-c4cncc(NC[C@H](O)c5ccccc5)c4)cc23)cc1 | 0.918 | 0.006 | 
29 | N[C@@H](C(=O)Nc1cncc(-c2ccc3[nH]nc(NC(=O)c4ccccc4)c3c2)c1)c1ccccc1 |  |  | inhibition [4]: 34%; inhibition [3]: 29%
30 | Nc1cncc(-c2ccc3[nH]nc(NC(=O)c4ccccc4)c3c2)c1 |  |  | inhibition [4]: 45%
31 | NCCNc1cncc(-c2ccc3[nH]nc(NC(=O)c4ccccc4)c3c2)c1 |  | 1.56 | 
